Values after ≈ are worked out from the molar mass of the structure shown. Like-named read-outs stand apart in the source and are kept apart here.
Key:
S. aureus 13709 [1] = assay: Minimum Inhibitory Concentration (MIC) of antibiotics with or without thixogel; assay type: cell-based, Staphylococcus aureus
Text: (§1) The Minimum Inhibitory Concentration (MIC) defines the lowest antibiotic concentration that inhibits 99.9% of bacterial growth.

P. aeruginosa 27853 [2] = assay: as above; assay type: cell-based, Pseudomonas aeruginosa
Text: as §1

S. aureus 13709 [3] = assay: Kill kinetics of ciprofloxacin with or without gels; assay type: cell-based, Staphylococcus aureus
Procedure: (§2) Growth was measured by sampling media placed above the thixogel and then quantifying colony forming units (CFU's) by serial dilution.

P. aeruginosa 27853 [4] = assay: as above; assay type: cell-based, Pseudomonas aeruginosa
Procedure: as §2

[5] = ciprofloxacin 30 μg/mL loaded in HA and SF gels

Which results are given for `C[C@@H](O)[C@H]1C(=O)N2C(C(=O)O)=C(SCCN=CN)C[C@H]12` [Imipenem, imipenem]?
MIC (S. aureus 13709 [1]; Staphylococcus aureus, 13709, S. aureus 13709, No Gel, read-out: Minimum Inhibitory Concentrations (MIC)): 0.032 µg/mL (≈ 0.107 µM); MIC (S. aureus 13709 [1]; Staphylococcus aureus, 13709, S. aureus 13709, antibiotic delivered in HA thixogel, read-out: Minimum Inhibitory Concentrations (MIC)): < 0.032 µg/mL; MIC (S. aureus 13709 [1]; Staphylococcus aureus, 13709, S. aureus 13709, antibiotic delivered in SF thixogel, read-out: Minimum Inhibitory Concentrations (MIC)): 0.125 µg/mL (≈ 0.418 µM); MIC (P. aeruginosa 27853 [2]; Pseudomonas aeruginosa, 27853, P. aeruginosa 27853, No Gel, read-out: Minimum Inhibitory Concentrations (MIC)): 2 µg/mL (≈ 6.68 µM); MIC (P. aeruginosa 27853 [2]; Pseudomonas aeruginosa, 27853, P. aeruginosa 27853, antibiotic delivered in HA thixogel, read-out: Minimum Inhibitory Concentrations (MIC)): 4 µg/mL (≈ 13.4 µM); MIC (P. aeruginosa 27853 [2]; Pseudomonas aeruginosa, 27853, P. aeruginosa 27853, antibiotic delivered in SF thixogel, read-out: Minimum Inhibitory Concentrations (MIC)): > 4 µg/mL

What does the source list for gentamycin?
effect of the gels (SF and HA) upon potency (S. aureus 13709 [1]; S. aureus): deleterious effect upon potency; Minimum Inhibitory Concentrations (MIC) (S. aureus 13709 [1]; S. aureus 13709, No Gel): 1 µg/mL; Minimum Inhibitory Concentrations (MIC) (S. aureus 13709 [1]; S. aureus 13709, antibiotic delivered in HA thixogel): 32 µg/mL; Minimum Inhibitory Concentrations (MIC) (S. aureus 13709 [1]; S. aureus 13709, antibiotic delivered in SF thixogel): 8 µg/mL; effect of the gels (SF and HA) upon potency (P. aeruginosa 27853 [2]; P. aeruginosa): deleterious effect upon potency; Minimum Inhibitory Concentrations (MIC) (P. aeruginosa 27853 [2]; P. aeruginosa 27853, No Gel): 2 µg/mL; Minimum Inhibitory Concentrations (MIC) (P. aeruginosa 27853 [2]; P. aeruginosa 27853, antibiotic delivered in HA thixogel): 32 µg/mL; Minimum Inhibitory Concentrations (MIC) (P. aeruginosa 27853 [2]; P. aeruginosa 27853, antibiotic delivered in SF thixogel): 32 µg/mL

`CN[C@H](CC(C)C)C(=O)N[C@H]1C(=O)N[C@@H](CC(N)=O)C(=O)N[C@H]2C(=O)N[C@H]3C(=O)N[C@H](C(=O)N[C@H](C(=O)O)c4cc(O)cc(O)c4-c4cc3ccc4O)[C@H](O)c3ccc(c(Cl)c3)Oc3cc2cc(c3O[C@@H]2O[C@H](CO)[C@@H](O)[C@H](O)[C@H]2O[C@H]2C[C@](C)(N)[C@H](O)[C@H](C)O2)Oc2ccc(cc2Cl)[C@H]1O` [Vancomycin, vancomycin] was tested. Which “potency / coverage of both pathogenic bacteria” value (S. aureus 13709 [1]; S. aureus (Gram positive)) did it give?
The value was “did not give coverage of both”.

What about the MIC (S. aureus 13709 [1]; Staphylococcus aureus, 13709, read-out: Minimum Inhibitory Concentrations (MIC), S. aureus 13709, No Gel) of the same molecule?
Its MIC is 2 µg/mL (≈ 1.38 µM).

What about the MIC (S. aureus 13709 [1]; Staphylococcus aureus, 13709, read-out: Minimum Inhibitory Concentrations (MIC), S. aureus 13709, antibiotic delivered in HA thixogel) of the same molecule?
The MIC was 16 µg/mL (≈ 11 µM).

And the MIC (S. aureus 13709 [1]; Staphylococcus aureus, 13709, read-out: Minimum Inhibitory Concentrations (MIC), S. aureus 13709, antibiotic delivered in SF thixogel)?
Its MIC is 4 µg/mL (≈ 2.76 µM).

And the “potency / coverage of both pathogenic bacteria” value (P. aeruginosa 27853 [2]; P. aeruginosa (Gram negative))?
The value was “did not give coverage of both”.

And the MIC (P. aeruginosa 27853 [2]; Pseudomonas aeruginosa, 27853, read-out: Minimum Inhibitory Concentrations (MIC), P. aeruginosa 27853, No Gel)?
Its MIC is over 4 µg/mL.

And the MIC (P. aeruginosa 27853 [2]; Pseudomonas aeruginosa, 27853, read-out: Minimum Inhibitory Concentrations (MIC), P. aeruginosa 27853, antibiotic delivered in HA thixogel)?
Its MIC is over 32 µg/mL.

And the MIC (P. aeruginosa 27853 [2]; Pseudomonas aeruginosa, 27853, read-out: Minimum Inhibitory Concentrations (MIC), P. aeruginosa 27853, antibiotic delivered in SF thixogel)?
Its MIC is over 32 µg/mL.

`O=C(O)c1cn(C2CC2)c2cc(N3CCNCC3)c(F)cc2c1=O` [Ciprofloxacin, ciprofloxacin] was tested. Which inhibition at 30 µg/mL (S. aureus 13709 [3]; Staphylococcus aureus, 13709, gel loaded drug, 30 μg/mL, read-out: inhibition of bacterial growth) did it give?
The inhibition at 30 µg/mL was 100%.

And the “time to complete inhibition of bacterial growth” value (S. aureus 13709 [3]; [5])?
The value was “around four”.

And the “inhibition of bacterial growth” value (S. aureus 13709 [3]; gel loaded drug, 30 μg/mL)?
The value was “more than 3 log10”.

What about the inhibition at 30 µg/mL (P. aeruginosa 27853 [4]; Pseudomonas aeruginosa, 27853, gel loaded drug, 30 μg/mL, read-out: inhibition of bacterial growth) of the same molecule?
The inhibition at 30 µg/mL was 100%.

What about the “time to complete inhibition of bacterial growth” value (P. aeruginosa 27853 [4]; [5]) of the same molecule?
The value was “around four”.

What about the “inhibition of bacterial growth” value (P. aeruginosa 27853 [4]; gel loaded drug, 30 μg/mL) of the same molecule?
The value was “more than 3 log10”.

Reference: patent publication US20260174871A1, “THIXOTROPIC DELIVERY SYSTEMS” (UNIVERSITY OF MONTANA, priority 2019, published 2026)
